From the NIST ThermoML archive (doi:10.1016/j.jct.2013.04.013)

Assays:
[1] = 101.33 kPa, Liquid; for thermal conductivity: Hot wire method; for viscosity: Cone and plate viscometry
[2] = molar heat capacity at constant pressure; details: 101.33 kPa, Liquid, Small sample (50 mg) DSC

CCCC[P+](C)(CCCC)CCCC.COS(=O)(=O)[O-] [tributylmethylphosphonium methyl sulfate]
[1]
Details | thermal conductivity [W/m/K]
283.34 K | 0.157
293.28 K | 0.156
298.36 K | 0.155
303.45 K | 0.155
313.5 K | 0.153
323.6 K | 0.153
333.58 K | 0.153
343.61 K | 0.153
353.51 K | 0.153

CC(CC(C)(C)C)CP(=O)([O-])CC(C)CC(C)(C)C.CCCCCCCCCCCCCC[P+](CCCCCC)(CCCCCC)CCCCCC
Details | molar heat capacity at constant pressure [J/K/mol] | thermal conductivity [W/m/K] | viscosity [mPa·s]
[1], 282.47 K | – | 0.137 | –
[1], 292.94 K | – | 0.136 | –
[1], 298.04 K | – | 0.135 | –
[1], 298.15 K | – | – | 847.3
[1], 303.15 K | – | 0.135 | –
[1], 313.15 K | – | – | 568.54
[1], 313.45 K | – | 0.133 | –
[1], 323.15 K | – | – | 387.46
[1], 323.45 K | – | 0.132 | –
[1], 333.15 K | – | – | 125.61
[1], 333.55 K | – | 0.131 | –
[1], 343.59 K | – | 0.131 | –
[1], 353.62 K | – | 0.131 | –
[2], 293.15 K | 1619.2 | – | –
[2], 298.15 K | 1634.7 | – | –
[2], 303.15 K | 1644.7 | – | –
[2], 308.15 K | 1655.6 | – | –
[2], 313.15 K | 1667.2 | – | –
[2], 318.15 K | 1678 | – | –
[2], 323.15 K | 1688 | – | –
[2], 328.15 K | 1698.1 | – | –
[2], 333.15 K | 1708.2 | – | –
[2], 338.15 K | 1717.4 | – | –
[2], 343.15 K | 1725.9 | – | –
[2], 348.15 K | 1736 | – | –
[2], 353.15 K | 1745.3 | – | –
[2], 358.15 K | 1754.5 | – | –
[2], 363.15 K | 1763.8 | – | –

CCCCCCCCCCCCCC[P+](CCCCCC)(CCCCCC)CCCCCC.FC(F)(F)C(F)(F)[P-](F)(F)(F)(C(F)(F)C(F)(F)F)C(F)(F)C(F)(F)F
[1]
Details | thermal conductivity [W/m/K]
282.19 K | 0.126
292.99 K | 0.125
298.41 K | 0.125
303.54 K | 0.125
314.37 K | 0.123
325.65 K | 0.123
334.58 K | 0.123
344.18 K | 0.123
355.07 K | 0.121

CCCCCCCCCCCCCC[P+](CCCCCC)(CCCCCC)CCCCCC.O=S(=O)([N-]S(=O)(=O)C(F)(F)F)C(F)(F)F
Details | molar heat capacity at constant pressure [J/K/mol] | thermal conductivity [W/m/K]
[1], 285.65 K | – | 0.139
[1], 293.14 K | – | 0.138
[1], 297.72 K | – | 0.137
[1], 302.37 K | – | 0.137
[1], 313.04 K | – | 0.135
[1], 323.58 K | – | 0.134
[1], 333.55 K | – | 0.135
[2], 333.15 K | 1367.6 | –
[2], 338.15 K | 1372.2 | –
[2], 343.15 K | 1378.3 | –
[2], 348.15 K | 1386.7 | –
[2], 353.15 K | 1395.1 | –
[2], 358.15 K | 1403.5 | –
[2], 363.15 K | 1413.4 | –
[2], 368.15 K | 1426.4 | –
[2], 373.15 K | 1435.6 | –
[2], 378.15 K | 1440.9 | –
[2], 383.15 K | 1450.1 | –
[2], 388.15 K | 1457.7 | –
[2], 393.15 K | 1465.4 | –
[2], 398.15 K | 1473.8 | –
[2], 403.15 K | 1480.6 | –
[2], 408.15 K | 1488.3 | –
[2], 413.15 K | 1495.9 | –
[2], 418.15 K | 1502.8 | –
[2], 423.15 K | 1509.7 | –
[2], 428.15 K | 1517.3 | –
[2], 438.15 K | 1533.4 | –
[2], 443.15 K | 1536.4 | –
[2], 448.15 K | 1542.5 | –
[2], 453.15 K | 1550.2 | –
[2], 458.15 K | 1556.3 | –
[2], 463.15 K | 1560.9 | –
